Data: US4587052A, “1H-pyrrolo-[2,1-C][1,4]benzodiazepine-2-acrylamide compounds having antitumor activity” (priority 1983, dated 1986)
Read-outs that look alike come from different tables or passages of the source.

Assays:
[1] = test system: mouse ascitic leukemia p388; assay: Antitumor activity test (mouse ascitic leukemia p388 i.p. in BDF1-strain male mice); assay type: in vivo; settings: for Prolongation of survival time, %: ip; for Therapeutic index: Table 2, toxic dose/effective dose
Description: 10^6 Cells of mouse ascitic leukemia p388 were administered intraperitoneally into each member of the groups of 8 to 12 BDF1 -strain male mice, each 18 to 20 g in body weight. After 24 hr from the administration, a test compound was intraperitoneally administered to each member of the test group in a predetermined dose once a day for 4 consecutive days. Days elapsed until death of the test animal were counted for each mouse. To each member of the control group, a physiological saline solution was administered. The average survival period of the animal was represented by mean survival time. The prolongation of survival time, indicative of the effectiveness of a test compound, was calculated by the following equation. [formula] The therapeutic index was calculated by the following equation. [formula]

in vivo = settings: mouse, ip
Description: A test compound was dissolved in dimethyl sulfoxide and the solution was diluted to 50-fold with a physiological saline solution. This original solution was serially diluted at a common ratio of 1.15. Each resulting solution was administered intraperitoneally to groups of 10 to 15 dd-strain male mice, each 18 to 20 g in body weight. […] The LD50 was calculated from the number of dead mice of each group according to the Probit method.

[2] = already known; cited from earlier work
[3] = already known; cited from earlier work; remark: listed apart in the source
[4] = Table 1, i.p., dd-strain male mice, 3 weeks, read-out: LD50
[5] = Table 2, i.p., dd-strain male mice, 3 weeks, read-out: LD50

Q: What does the source list for COC1Nc2c(ccc(C)c2OC(=O)c2cccc([N+](=O)[O-])c2C(=O)O)C(=O)N2C=C(C=CC(N)=O)CC12 (stereo not drawn) [5,10,11,11a-tetrahydro-9-(2-carboxy-3-nitrophenylcarbonyloxy)-11-methoxy-8-methyl-5-oxo-1H-pyrrolo-[2,1-C][1,4]-benzodiazepine-2-acrylamide]?
A: Prolongation of survival time, % ([1]; 30 mg/kg): 152%; LD50 at 504 h (in vivo; [4]): 95 mg/kg

Q: Which “Prolongation of survival time, %” value ([1]; 30 mg/kg) does the source give for COC1Nc2c(ccc(C)c2OC(=O)c2ccccc2C(=O)O)C(=O)N2C=C(C=CC(N)=O)CC12 (stereo not drawn) [5,10,11,11a-tetrahydro-9-(2-carboxyphenylcarbonyloxy)-11-methoxy-8-methyl-5-oxo-1H-pyrrolo-[2,1-C][1,4]-benzodiazepine-2-acrylamide] here?
A: 130.2%

Q: And the LD50 at 504 h (in vivo; [4])?
A: 86.9 mg/kg

Q: Which Therapeutic index [1] does the source give for Cc1ccc2c(c1OCc1ccccc1C#N)NC(O)C1CC(/C=C/C(N)=O)=CN1C2=O (stereo not drawn) [5,10,11,11a-tetrahydro-9-(2-cyanobenzyloxy)-11-hydroxy-8-methyl-5-oxo-1H-pyrrolo-[2,1-C][1,4]benzodiazepine-2-acrylamide] here?
A: 73.3

Q: What about the LD50 at 504 h (in vivo) of the same molecule?
A: 120 mg/kg

Q: For CC(=O)SC(CC(=O)Oc1c(C)ccc2c1NC(O)C1CC(/C=C/C(N)=O)=CN1C2=O)C(=O)O (stereo not drawn) [5,10,11,11a-tetrahydro-9-(3-carboxy-3-S-acetylmercaptopropanoyloxy)-11-hydroxy-8-methyl-5-oxo-1H-pyrrolo-[2,1-C][1,4]-benzodiazepine-2-acrylamide], which LD50 at 504 h (in vivo; [4]) is on record?
A: 138 mg/kg

Q: Which Therapeutic index [1] does the source give for COC1Nc2c(ccc(C)c2OCCc2ccc(C(=O)O)cc2)C(=O)N2C=C(/C=C/C(N)=O)CC12 (stereo not drawn) [5,10,11,11a-tetrahydro-9-[2-(4-carboxyphenyl)-ethoxy]-11-methoxy-8-methyl-5-oxo-1H-pyrrolo-[2,1-C][1,4]benzodiazepine-2-acrylamide] here?
A: 82.3

Q: And the “Prolongation of survival time, %” value ([1]; 10 mg/kg)?
A: 165%

Q: What about the LD50 at 504 h (in vivo; [5]) of the same molecule?
A: 128 mg/kg

Q: What does the source list for CCC(CCCN)Oc1c(C)ccc2c1NC(OC)C1CC(/C=C/C(N)=O)=CN1C2=O (stereo not drawn) [5,10, 11, 11a-tetrahydro-9-(4-amino-1-ethylpropoxy)-11-methoxy-8-methyl-5-oxo-1H-pyrrolo-[2,1-C][1,4]benzodiazepine-2-acrylamide]?
A: Therapeutic index [1]: 78.4; LD50 at 504 h (in vivo; [5]): 115 mg/kg

Q: For Cc1ccc2c(c1OCCC#N)NC(O)C1CC(/C=C/C(N)=O)=CN1C2=O (stereo not drawn) [(CH2)2 CN, 5,10,11,11a-tetrahydro-9-(2-cyanoethoxy)-11-hydroxy-8-methyl-5-oxo-1H-pyrrolo-[2,1-C][1,4]benzodiazepine-2-acrylamide], which Therapeutic index [1] is on record?
A: 103.8

Q: And the LD50 at 504 h (in vivo; [5])?
A: 118 mg/kg

Q: With Cc1ccc2c(c1OCCCC#N)NC(O)C1CC(/C=C/C(N)=O)=CN1C2=O (stereo not drawn) [(CH2)3 CN, 5,10,11,11a-Tetrahydro-9-(3-cyanopropoxy)-11-hydroxy-8-methyl-5-oxo-1H-pyrrolo-[2,1-C][1,4]benzodiazepine-2-acrylamide] as the molecule, how does the Therapeutic index [1] read?
A: 95.2

Q: What about the “Prolongation of survival time, %” value ([1]; 10 mg/kg) of the same molecule?
A: 188%

Q: What about the LD50 at 504 h (in vivo; [5]) of the same molecule?
A: 110 mg/kg

Q: What does the source list for Cc1ccc2c(c1OCCCN)NC(O)C1CC(/C=C/C(N)=O)=CN1C2=O (stereo not drawn) [(CH2)3 NH2, 5,10,11,11a-tetrahydro-9-(3-aminopropoxy)-11-hydroxy-8-methyl-5-oxo-1H-pyrrolo[2,1-C][1,4]benzodiazepine-2-acrylamide]?
A: Therapeutic index [1]: 93.5; LD50 at 504 h (in vivo): 103 mg/kg

Q: For COC1Nc2c(ccc(C)c2OCCC(=O)O)C(=O)N2C=C(/C=C/C(N)=O)CC12 (stereo not drawn) [CH2 CH2 COOK, 5,10,11,11a-tetrahydro-9-(2-carboxyethoxy)-11-methoxy-8-methyl-5-oxo-1H-pyrrolo-[2,1-C][1,4]benzodiazepine-2-acrylamide], which Therapeutic index [1] is on record?
A: 72.4

Q: What about the “Prolongation of survival time, %” value ([1]; 10 mg/kg) of the same molecule?
A: 172%

Q: And the LD50 at 504 h (in vivo)?
A: 105 mg/kg

Q: With COC1Nc2c(ccc(C)c2OCC(=O)O)C(=O)N2C=C(/C=C/C(N)=O)CC12 (stereo not drawn) [CH2 COONa, 5,10,11,11a-tetrahydro-9-carboxymethoxy-11-methoxy-8-methyl-5-oxo-1H-pyrrolo-[2,1-C][1,4]benzodiazepine-2-acrylamide] as the molecule, how does the Therapeutic index [1] read?
A: 88.5

Q: And the LD50 at 504 h (in vivo)?
A: 102 mg/kg

Q: What does the source list for Cc1ccc2c(c1OC(=O)CCCCC(=O)O)NC(O)C1CC(/C=C/C(N)=O)=CN1C2=O (stereo not drawn) [COCH2 CH2 CH2 CH2COOK, 5,10,11,11a-tetrahydro-9-(5-carboxypentanoyloxy)-11-hydroxy-8-methyl-5-oxo-1H-pyrrolo-[2,1-C][1,4]-benzodiazepine-2-acrylamide]?
A: Prolongation of survival time, % ([1]; 30 mg/kg): 172.5%; LD50 at 504 h (in vivo; [4]): 157 mg/kg

Q: Which results are given for Cc1ccc2c(c1OC(=O)CCCC(=O)O)NC(O)C1CC(/C=C/C(N)=O)=CN1C2=O (stereo not drawn) [COCH2 CH2 CH2COOK, 5,10,11,11a-tetrahydro-9-(4-carboxybutanoyloxy)-11-hydroxy-8-methyl-5-oxo-1H-pyrrolo-[2,1-C][1,4]-benzodiazepine-2-acrylamide]?
A: Prolongation of survival time, % ([1]; 30 mg/kg): 185%; LD50 at 504 h (in vivo; [4]): 151 mg/kg

Q: For Cc1ccc2c(c1OC(=O)CCC(=O)O)NC(O)C1CC(/C=C/C(N)=O)=CN1C2=O (stereo not drawn) [COCH2 CH2COOK, 5,10,11,11a-tetrahydro-9-(3-carboxypropanoyloxy)-11-hydroxy-8-methyl-5-oxo-1H-pyrrolo[2,1-C][1,4]-benzodiazepine-2-acrylamide], which “Prolongation of survival time, %” value ([1]; 30 mg/kg) is on record?
A: 160%

Q: And the LD50 at 504 h (in vivo)?
A: 120 mg/kg

Q: For Cc1ccc2c(c1OC(=O)COCC(=O)O)NC(O)C1CC(/C=C/C(N)=O)=CN1C2=O (stereo not drawn) [COCH2OCH2COOK, 5,10,11,11a-tetrahydro-9-(4-carboxy-3-oxabutanoyloxy)-11-hydroxy-8-methyl-5-oxo-1H-pyrrolo-[2,1-C][1,4]-benzodiazepine-2-acrylamide], which “Prolongation of survival time, %” value ([1]; 30 mg/kg) is on record?
A: 181.2%

Q: And the LD50 at 504 h (in vivo; [4])?
A: 160 mg/kg

Q: With Cc1ccc2c(c1O)N=CC1CC(/C=C/C(N)=O)=CN1C2=O (stereo not drawn) [P'B'A', 5,11,11a-trihydro-9-hydroxy-8-methyl-5-oxo-1H-pyrrolo[2,1-C][1,4]benzodiazepine-2-acylamide] as the molecule, how does the “antitumor activity (in words)” value [2] read?
A: an antitumor activity

Q: What about the “antibacterial activity (in words)” value [3] of the same molecule?
A: have an antibacterial activity

Q: Which Therapeutic index [1] does the source give for Cc1ccc2c(c1O)NC(O)C1CC(/C=C/C(N)=O)=CN1C2=O (stereo not drawn) [PBA, 5,10,11,11a-tetrahydro-9,11-dihydroxy-8-methyl-5-oxo-1H-pyrrolo-[2,1-C][1,4]-benzodiazepine-2-acrylamide, reference compound] here?
A: 36.5

Q: And the “antitumor activity (in words)” value [2]?
A: an antitumor activity

Q: What about the “antibacterial activity (in words)” value [3] of the same molecule?
A: have an antibacterial activity

Q: What about the LD50 at 504 h (in vivo) of the same molecule?
A: 0.73 mg/kg

Q: With CCCCCCCCCC(CC(=O)Oc1c(C)ccc2c1NC(O)C1CC(C=CC(N)=O)=CN1C2=O)C(=O)O (stereo not drawn) [Table 1 entry 4 (R^1 not printed), 5,10,11,11a-tetrahydro-9-(3-carboxydodecanoyloxy)-11-hydroxy-8-methyl-5-oxo-1H-pyrrolo-[2,1-C][1,4]-benzodiazepine-2-acrylamide] as the molecule, how does the LD50 at 504 h (in vivo; [4]) read?
A: 122 mg/kg
